{"source": "paper PMC4666608", "about": "“Metabolic Profiling of Chicken Embryos Exposed to Perfluorooctanoic Acid (PFOA) and Agonists to Peroxisome Proliferator-Activated Receptors” (PLoS ONE, 2015)", "test_system": "chicken embryos", "test": "Metabolic profiling of blood plasma (GC-MS, LC-MS, OPLS-DA)", "assay_type": "in vivo, Gallus gallus domesticus", "settings": "for Mean concentration relative to control, feature Win006_C03 / Mean concentration relative to control, feature Win011_C02 (Isoleucine) / Mean concentration relative to control, feature Win027_C13 / Mean concentration relative to control, feature Win031_C03 (Citric acid) / Mean concentration relative to control, feature Win034_C08 (Tyrosine) / Mean concentration relative to control, feature Win034_C09 (Tyrosine) / Mean concentration relative to control, feature Win039_C07 / Mean concentration relative to control, feature Win043_C02 (Cystathionine) / Mean concentration relative to control, feature Win061_C01 / Mean concentration relative to control, feature Win066_C03 / Mean concentration relative to control, feature Win088_C02: GC", "description": "Controls were injected with 20 μL vehicle only (DMSO).\nPlasma was collected and stored at -70°C.\nMetabolites in allantoic fluid and blood plasma were analyzed using gas chromatography-mass spectrometry (GC-MS) and liquid chromatography-mass spectrometry (LC-MS) as described in S1 Methods. Prior to GC-MS and LC-MS analysis, allantoic fluid (100 μL) and blood plasma (50 μL) were extracted. To each sample, 900 μL (allantoic fluid) or 450 μL (blood plasma) of extraction buffer (90/10 v/v methanol:water) including all internal standards were added. Standards for GC-MS were proline, succinic acid, glutamic acid, salicylic acid, alpha-ketoglutarate, putrescine, myristic acid, hexadecanoic acid, cholesterol, and sucrose. Standards for LC-MS were Val-Tyr-Val, Leu-enkephalin, sulfadimethoxine and reserpine. Samples were homogenized by shaking in a bead mill at a frequency of 30 Hz for 3 minutes and proteins were precipitated at +4°C on ice. The samples were centrifuged at +4°C, 14000 rpm, for 10 min. Then, 200 μL supernatant was transferred to a GC microvial and 200 μL was transferred to an LC microvial, and solvents were evaporated. Samples from the four replicate experiments were analyzed using in chronological order and within each replicate experiment the run order of the individual samples was randomized.\nMultivariate statistical analyses of metabolite profiles were performed using the software package SIMCA-P version 13.0 (Umetrics, Umeå, Sweden). Data was centered and scaled to variance 1 (UV scaling) prior to modelling. To reduce unintended systematic variation caused by sample processing and instrument drift, GC-MS and LC-MS metabolite amounts (expressed as the area under the chromatographic peak) were normalized by Orthogonal Partial Least Squares analysis (O2PLS) prior to multivariate data analysis. O2PLS finds common (predictive) and unique (orthogonal) variation in two data matrices. If applied to find the common variation between the data matrix containing the measured metabolite concentrations and a matrix containing only the internal standards, the only common (predictive) variation expected is due to the unintended systematic variation. By deleting the contribution of the predictive latent variables, that variation can be removed from the data. Models obtained after this normalization contain in general less latent variables, and this simplification helps when deciding on the number of latent variables to be used. Following normalization, GC-MS and LC-MS data were analyzed together. Initially, a global Principal Component Analysis (PCA) was performed to get an overview of groups and trends and to identify outliers. Projections to latent structures by means of Orthogonal Partial Least Squares Discriminant Analysis (OPLS-DA) was used to model the relationship between the X-matrix (metabolite concentrations) and the Y matrix (class, i.e. exposure group or sex), and to find x-variables that were related to class belonging. OPLS-DA is a supervised prediction and regression method that rotates the projection plane to find the maximum covariance between the data and the class assignment. All groups were first analyzed together in a 5-class OPLS-DA and then each exposure group was analyzed against the control group in a 2-class OPLS-DA. Sex differences were analyzed both using the whole data set and in each group separately using 2-class OPLS-DA, with females and males as the two classes. Only variables with 80% or more nonzero values were included in the statistical models. […] The validity of each model was also checked using CV-ANOVA (ANOVA of the cross-validated residuals). A significance level of p < 0.05 was used. For each model, R ^2 X, R ^2 Y and Q ^2 values were calculated, where R ^2 X is a measure of the fraction of x variation modeled in the extracted latent variables, R ^2 Y is a measure of the fraction of y variation modeled and Q ^2 is an estimate of the predictive ability of the model and is calculated by cross-validation. […]", "note": "Marks after values point to notes of the source that are not given here."}
{"compound": "O=C(O)C(F)(F)C(F)(F)C(F)(F)C(F)(F)C(F)(F)C(F)(F)C(F)(F)F", "note": "[PFOA, perfluorooctanoic acid]", "values": [{"measurement": "Mean concentration relative to control, feature Win006_C03", "setting": "PFOA 50", "result": "1.1*"}, {"measurement": "Mean concentration relative to control, feature Win011_C02 (Isoleucine)", "setting": "PFOA 50", "result": 1.1}, {"measurement": "Mean concentration relative to control, feature Win027_C13", "setting": "PFOA 50", "result": 0.9}, {"measurement": "Mean concentration relative to control, feature Win031_C03 (Citric acid)", "setting": "PFOA 50", "result": 1}, {"measurement": "Mean concentration relative to control, feature Win034_C08 (Tyrosine)", "setting": "PFOA 50", "result": 1.1}, {"measurement": "Mean concentration relative to control, feature Win034_C09 (Tyrosine)", "setting": "PFOA 50", "result": 1.1}, {"measurement": "Mean concentration relative to control, feature Win039_C07", "setting": "PFOA 50", "result": 1.3}, {"measurement": "Mean concentration relative to control, feature Win043_C02 (Cystathionine)", "setting": "PFOA 50", "result": 1.1}, {"measurement": "Mean concentration relative to control, feature Win061_C01", "setting": "PFOA 50", "result": 0.9}, {"measurement": "Mean concentration relative to control, feature Win066_C03", "setting": "PFOA 50", "result": 1}, {"measurement": "Mean concentration relative to control, feature Win088_C02", "setting": "PFOA 50", "result": 1}, {"measurement": "Mean concentration relative to control, feature Win006_C03", "setting": "PFOA 250", "result": "1.1*"}, {"measurement": "Mean concentration relative to control, feature Win011_C02 (Isoleucine)", "setting": "PFOA 250", "result": "1.1*"}, {"measurement": "Mean concentration relative to control, feature Win027_C13", "setting": "PFOA 250", "result": "0.8*"}, {"measurement": "Mean concentration relative to control, feature Win031_C03 (Citric acid)", "setting": "PFOA 250", "result": 1}, {"measurement": "Mean concentration relative to control, feature Win034_C08 (Tyrosine)", "setting": "PFOA 250", "result": 1}, {"measurement": "Mean concentration relative to control, feature Win034_C09 (Tyrosine)", "setting": "PFOA 250", "result": 1.0}, {"measurement": "Mean concentration relative to control, feature Win039_C07", "setting": "PFOA 250", "result": 1.3}, {"measurement": "Mean concentration relative to control, feature Win043_C02 (Cystathionine)", "setting": "PFOA 250", "result": 1.1}, {"measurement": "Mean concentration relative to control, feature Win061_C01", "setting": "PFOA 250", "result": 0.9}, {"measurement": "Mean concentration relative to control, feature Win066_C03", "setting": "PFOA 250", "result": 1}, {"measurement": "Mean concentration relative to control, feature Win088_C02", "setting": "PFOA 250", "result": 1}, {"measurement": "Mean concentration relative to control, feature 118.0284@2.480333 (C4H6O4)", "setting": "LC, PFOA 50", "result": 1}, {"measurement": "Mean concentration relative to control, feature 122.0486@0.675613", "setting": "LC, PFOA 50", "result": 1.1}, {"measurement": "Mean concentration relative to control, feature 126.0428@1.2278157 (Thymine)", "setting": "LC, PFOA 50", "result": 1.1}, {"measurement": "Mean concentration relative to control, feature 146.0362@0.7772238", "setting": "LC, PFOA 50", "result": 1.1}, {"measurement": "Mean concentration relative to control, feature 159.0686@1.1608156", "setting": "LC, PFOA 50", "result": 1}, {"measurement": "Mean concentration relative to control, feature 164.0449@0.7694838", "setting": "LC, PFOA 50", "result": 1.1}, {"measurement": "Mean concentration relative to control, feature 202.1024@5.0303197 (C8H14N2O4)", "setting": "LC, PFOA 50", "result": 1.1}, {"measurement": "Mean concentration relative to control, feature 203.1162@0.5130696", "setting": "LC, PFOA 50", "result": 1.1}, {"measurement": "Mean concentration relative to control, feature 213.2458@7.4887733", "setting": "LC, PFOA 50", "result": 1}, {"measurement": "Mean concentration relative to control, feature 215.047@1.6260729 (C5H14NO6P)", "setting": "LC, PFOA 50", "result": 1.0}, {"measurement": "Mean concentration relative to control, feature 226.0721@1.9460537", "setting": "LC, PFOA 50", "result": 1}, {"measurement": "Mean concentration relative to control, feature 231.0174@1.6241412", "setting": "LC, PFOA 50", "result": 1}, {"measurement": "Mean concentration relative to control, feature 233.1265@2.535991", "setting": "LC, PFOA 50", "result": 1.1}, {"measurement": "Mean concentration relative to control, feature 250.1317@2.1334834", "setting": "LC, PFOA 50", "result": 1.1}, {"measurement": "Mean concentration relative to control, feature 260.0508@0.69984084", "setting": "LC, PFOA 50", "result": "0.6**"}, {"measurement": "Mean concentration relative to control, feature 276.0173@1.6283482", "setting": "LC, PFOA 50", "result": 1}, {"measurement": "Mean concentration relative to control, feature 278.0939@1.3354088", "setting": "LC, PFOA 50", "result": 1}, {"measurement": "Mean concentration relative to control, feature 293.0903@1.5739433", "setting": "LC, PFOA 50", "result": 1}, {"measurement": "Mean concentration relative to control, feature 307.2147@7.5065937 (C18H29NO3)", "setting": "LC, PFOA 50", "result": "1.3**"}, {"measurement": "Mean concentration relative to control, feature 310.178@7.5343466", "setting": "LC, PFOA 50", "result": 1}, {"measurement": "Mean concentration relative to control, feature 339.3861@9.528681", "setting": "LC, PFOA 50", "result": "1.4*"}, {"measurement": "Mean concentration relative to control, feature 342.2883@7.526812", "setting": "LC, PFOA 50", "result": "0.9**"}, {"measurement": "Mean concentration relative to control, feature 348.0675@1.5761927", "setting": "LC, PFOA 50", "result": 1}, {"measurement": "Mean concentration relative to control, feature 355.9454@0.68034226", "setting": "LC, PFOA 50", "result": 1}, {"measurement": "Mean concentration relative to control, feature 362.1467@0.8461036", "setting": "LC, PFOA 50", "result": 1.1}, {"measurement": "Mean concentration relative to control, feature 366.1431@1.4228548", "setting": "LC, PFOA 50", "result": 1}, {"measurement": "Mean concentration relative to control, feature 373.296@9.044806", "setting": "LC, PFOA 50", "result": 1}, {"measurement": "Mean concentration relative to control, feature 375.3108@8.995564", "setting": "LC, PFOA 50", "result": 1}, {"measurement": "Mean concentration relative to control, feature 389.2686@9.046645", "setting": "LC, PFOA 50", "result": 1}, {"measurement": "Mean concentration relative to control, feature 407.0999@1.585909", "setting": "LC, PFOA 50", "result": 1}, {"measurement": "Mean concentration relative to control, feature 412.135@2.4779084 (C17H24N4O6S)", "setting": "LC, PFOA 50", "result": 1}, {"measurement": "Mean concentration relative to control, feature 444.3607@10.33052", "setting": "LC, PFOA 50", "result": 0.9}, {"measurement": "Mean concentration relative to control, feature 471.9819@0.685074", "setting": "LC, PFOA 50", "result": 1}, {"measurement": "Mean concentration relative to control, feature 489.1508@8.562614", "setting": "LC, PFOA 50", "result": "0.8*"}, {"measurement": "Mean concentration relative to control, feature 509.1184@2.4798179", "setting": "LC, PFOA 50", "result": 1}, {"measurement": "Mean concentration relative to control, feature 525.2855@8.361063", "setting": "LC, PFOA 50", "result": 1.1}, {"measurement": "Mean concentration relative to control, feature 545.2492@8.463657", "setting": "LC, PFOA 50", "result": 1.1}, {"measurement": "Mean concentration relative to control, feature 558.4095@9.459733", "setting": "LC, PFOA 50", "result": 1.2}, {"measurement": "Mean concentration relative to control, feature 565.1902@0.7699907", "setting": "LC, PFOA 50", "result": 1.1}, {"measurement": "Mean concentration relative to control, feature 577.2747@9.25652", "setting": "LC, PFOA 50", "result": 1}, {"measurement": "Mean concentration relative to control, feature 581.1643@0.77029324", "setting": "LC, PFOA 50", "result": 1.1}, {"measurement": "Mean concentration relative to control, feature 634.2403@1.9467853", "setting": "LC, PFOA 50", "result": 1}, {"measurement": "Mean concentration relative to control, feature 644.1614@0.7647065", "setting": "LC, PFOA 50", "result": 1.1}]}
